One experiment deals with PDE2A (Homo sapiens (Human), UniProt O00408). Briefly: IMAP TR-FRET PDE2A enzymatic assay. The format is biochemical. The note with it: FLAG-tagged PDE2A1 (amino acids 2-941), 200 nM FAM-cAMP substrate, 11-point half-log dose-response. An excerpt:
An IMAP TR-FRET-based phosphodiesterase assay was developed using the PDE2A isoform. IMAP technology is based on high-affinity binding of phosphate by immobilized metal (MIII) coordination complexes on nanoparticles. The IMAP “binding reagent” recognizes phosphate groups on AMP or GMP generated from cAMP or cGMP in a PDE reaction. Cyclic nucleotides that carry a phosphodiester bond and not a free phosphate are not recognized by the binding reagent. The time resolved fluorescence resonance energy transfer (TR-FRET) is afforded by a Terbium (Tb)-Donor pre-bound to the nanoparticles. FRET occurs when the fluorescent-labeled AMP or GMP product of a PDE reaction binds and comes into close proximity to the Tb-Donor complex. Due to the long lifetime of Tb fluorescence, detection can be run in time-resolved mode to reduce or eliminate interference from auto-fluorescent compounds.
The IMAP TR-FRET PDE2A assay was performed in 1536-well white plates. A total of 250 pg per well of FLAG-tagged PDE2A 1 (amino acids 2-941) was dispensed in 2.5 μL IMAP assay buffer consisting of 10 mM Tris pH 7.2, 10 mM MgCl2, 1 mM DTT, and 0.1% fatty acid free BSA. 30 nL of compound was then added from 1 mM stocks in DMSO using a Kalypsys Pintool. Plates were incubated for 5 min at room temperature before dispensing 1.5 μL of 533 nM FAM-cAMP substrate for a final concentration of 200 nM. Following a brief centrifugation, plates were incubated for 30 min at room temperature. The assay was terminated by adding 5 μL IMAP binding reagent Tb complex to each well which was prepared according to manufacturer's recommendations (Molecular Devices). Plates were incubated an additional 120 minutes at room temperature and read on a Viewlux plate reader. All compounds were solvated at a concentration of 10 mM in DMSO and tested in 11-point half-log dose-response. Curve fitting and IC50 values were determined using a standard four parameter fit.
Chain of PDE2A (O00408 2-941): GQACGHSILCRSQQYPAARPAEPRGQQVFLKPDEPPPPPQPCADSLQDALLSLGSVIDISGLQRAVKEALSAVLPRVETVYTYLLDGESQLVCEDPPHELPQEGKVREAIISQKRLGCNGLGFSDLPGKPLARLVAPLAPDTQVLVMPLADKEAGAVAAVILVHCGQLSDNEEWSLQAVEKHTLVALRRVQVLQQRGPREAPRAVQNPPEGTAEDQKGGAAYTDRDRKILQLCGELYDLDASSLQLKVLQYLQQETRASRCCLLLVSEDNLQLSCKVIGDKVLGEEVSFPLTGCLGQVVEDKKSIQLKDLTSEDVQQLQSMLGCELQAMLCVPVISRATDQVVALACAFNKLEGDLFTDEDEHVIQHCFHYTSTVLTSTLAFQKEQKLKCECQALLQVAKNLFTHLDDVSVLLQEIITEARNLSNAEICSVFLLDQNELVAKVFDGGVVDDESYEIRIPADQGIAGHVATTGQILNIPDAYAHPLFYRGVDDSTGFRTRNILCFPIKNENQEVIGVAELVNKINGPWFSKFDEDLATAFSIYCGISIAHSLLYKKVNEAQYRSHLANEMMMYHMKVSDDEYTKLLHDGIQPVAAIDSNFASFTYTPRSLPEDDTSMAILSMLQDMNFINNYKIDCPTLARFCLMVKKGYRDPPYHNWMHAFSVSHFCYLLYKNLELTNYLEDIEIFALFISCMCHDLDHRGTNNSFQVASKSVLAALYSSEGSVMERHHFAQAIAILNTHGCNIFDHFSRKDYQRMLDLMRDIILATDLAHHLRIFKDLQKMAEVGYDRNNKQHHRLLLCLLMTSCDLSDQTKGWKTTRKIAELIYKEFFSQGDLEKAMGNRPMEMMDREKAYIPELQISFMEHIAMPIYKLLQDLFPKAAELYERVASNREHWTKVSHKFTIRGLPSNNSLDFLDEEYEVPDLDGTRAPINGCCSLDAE
For the molecule `CCC(c1ccc(C(F)(F)F)nc1)n1nc(C2CC2)c2c(=O)[nH]c(Cc3ccc(OC)cn3)nc21` (stereo not shown) [Example 1, 3-cyclopropyl-6-[(5-methoxypyridin-2-yl)methyl]-1-{1-[6-(trifluoromethyl)pyridin-3-yl]propyl}-1H,4H,5H-pyrazolo[3,4-d]pyrimidin-4-one], the “PDE2 (pIC50)” value is given as above 7. The same measure, in the same setting: under `COc1ccc(Cc2nc3c(c(C4CC4)nn3C(C)c3ccc(C(F)(F)F)nc3)c(=O)[nH]2)nc1` (stereo not shown) [Example 2, 3-cyclopropyl-6-[(5-methoxypyridin-2-yl)methyl]-1-{1-[6-(trifluoromethyl)pyridin-3-yl]ethyl}-1H,4H,5H-pyrazolo[3,4-d]pyrimidin-4-one] stands above 7; under `COc1ccc(Cc2nc3c(c(C4CC4)nn3[C@@H](C)c3ccc(C(F)(F)F)nc3)c(=O)[nH]2)nc1` [Example 5, 3-cyclopropyl-6-[(5-methoxypyridin-2-yl)methyl]-1-[(1S)-1-[6-(trifluoromethyl)pyridin-3-yl]ethyl]-1H,4H,5H-pyrazolo[3,4-d]pyrimidin-4-one], above 7. On the same count and under the same terms, to `CCC(c1ccc(C(F)(F)F)nc1)n1nc(C2CC2)c2c(=O)[nH]c(Cc3ccc(F)cn3)nc21` (stereo not shown) [Example 8, 3-cyclopropyl-6-[(5-fluoropyridin-2-yl)methyl]-1-{1-[6-(trifluoromethyl)pyridin-3-yl]propyl}-1H,4H,5H-pyrazolo[3,4-d]pyrimidin-4-one] belongs above 7; to `CCC(c1ccc(C(F)(F)F)cn1)n1nc(C2CC2)c2c(=O)[nH]c(C)nc21` (stereo not shown) [Example 9, 3-cyclopropyl-6-methyl-1-{1-[5-(trifluoromethyl)pyridin-2-yl]propyl}-1H,4H,5H-pyrazolo[3,4-d]pyrimidin-4-one], above 7; to `Cc1nc2c(c(C3CC3)nn2C(C)c2ccc(C(F)(F)F)cc2)c(=O)[nH]1` (stereo not shown) [Example 10, 3-cyclopropyl-6-methyl-1-{1-[4-(trifluoromethyl)phenyl]ethyl}-1H,4H,5H-pyrazolo[3,4-d]pyrimidin-4-one], above 7. The same measure, in the same setting: to `Cc1nc2c(c(C3CC3)nn2C(C)c2ccc(C(F)(F)F)cn2)c(=O)[nH]1` (stereo not shown) [Example 11, 3-cyclopropyl-6-methyl-1-{1-[5-(trifluoromethyl)pyridin-2-yl]ethyl}-1H,4H,5H-pyrazolo[3,4-d]pyrimidin-4-one] belongs above 7; to `Cc1nc2c(c(C3CC3)nn2C(C)c2ccc(C(F)(F)F)nc2)c(=O)[nH]1` (stereo not shown) [Example 12, 3-cyclopropyl-6-methyl-1-{1-[6-(trifluoromethyl)pyridin-3-yl]ethyl}-1H,4H,5H-pyrazolo[3,4-d]pyrimidin-4-one], above 7. Turning to `C[C@H](c1ccc(C(F)(F)F)nc1)n1nc(C2CC2)c2c(=O)[nH]c(Cc3ccc(F)cn3)nc21` [Example 16, 3-cyclopropyl-6-[(5-fluoropyridin-2-yl)methyl]-1-[(1R)-1-[6-(trifluoromethyl)pyridin-3-yl]ethyl]-1H,4H,5H-pyrazolo[3,4-d]pyrimidin-4-one], the “PDE2 (pIC50)” value is below 5. On to `CC[C@@H](c1ccc(C(F)(F)F)nc1)n1nc(C2CC2)c2c(=O)[nH]c(Cc3ccc(OC)cn3)nc21` [Example 17, 3-cyclopropyl-6-[(5-methoxypyridin-2-yl)methyl]-1-[(1S)-1-[6-(trifluoromethyl)pyridin-3-yl]propyl]-1H,4H,5H-pyrazolo[3,4-d]pyrimidin-4-one], for which the “PDE2 (pIC50)” value was above 7.

As to `CC[C@H](c1ccc(C(F)(F)F)nc1)n1nc(C2CC2)c2c(=O)[nH]c(Cc3ccc(OC)cn3)nc21` [Example 18, 3-cyclopropyl-6-[(5-methoxypyridin-2-yl)methyl]-1-[(1R)-1-[6-(trifluoromethyl)pyridin-3-yl]propyl]-1H,4H,5H-pyrazolo[3,4-d]pyrimidin-4-one], the “PDE2 (pIC50)” value is below 5. Same read-out and setting: to `CC[C@@H](c1ccc(C(F)(F)F)nc1)n1nc(C2CC2)c2c(=O)[nH]c(C)nc21` [Example 19, 3-cyclopropyl-6-methyl-1-[(1S)-1-[6-(trifluoromethyl)pyridin-3-yl]propyl]-1H,4H,5H-pyrazolo[3,4-d]pyrimidin-4-one] belongs above 7. The same measure, in the same setting: under `CC[C@@H](c1ccc(C(F)(F)F)nc1)n1nc(C2CC2)c2c(=O)[nH]c(Cc3ccc(F)cn3)nc21` [Example 21, 3-cyclopropyl-6-[(5-fluoropyridin-2-yl)methyl]-1-[(1S)-1-[6-(trifluoromethyl)pyridin-3-yl]propyl]-1H,4H,5H-pyrazolo[3,4-d]pyrimidin-4-one] stands above 7.

As to `CC[C@@H](c1ccc(C(F)(F)F)cn1)n1nc(C2CC2)c2c(=O)[nH]c(C)nc21` [Example 23, 3-cyclopropyl-6-methyl-1-[(1S)-1-[5-(trifluoromethyl)pyridin-2-yl]propyl]-1H,4H,5H-pyrazolo[3,4-d]pyrimidin-4-one], the “PDE2 (pIC50)” value is above 7. Still for that read-out and setting: under `Cc1nc2c(c(C3CC3)nn2[C@@H](C)c2ccc(C(F)(F)F)cn2)c(=O)[nH]1` [Example 25, 3-cyclopropyl-6-methyl-1-[(1S)-1-[5-(trifluoromethyl)pyridin-2-yl]ethyl]-1H,4H,5H-pyrazolo[3,4-d]pyrimidin-4-one] stands above 7.

Still in this experiment, the particulars now being: FLAG-tagged PDE2A1 (amino acids 2-941), 200 nM FAM-cAMP substrate, 11-point half-log dose-response; read-out: PDE2 (pIC50) (converted).
Regarding `CCC(c1ccc(C(F)(F)F)nc1)n1nc(C2CC2)c2c(=O)[nH]c(C)nc21` (stereo not shown) [Example 3, 3-cyclopropyl-6-methyl-1-{1-[6-(trifluoromethyl)pyridin-3-yl]propyl}-1H,4H,5H-pyrazolo[3,4-d]pyrimidin-4-one], the IC50 is 100 to 1000 nM.

For `CCC(c1ccc(C(F)(F)F)nc1)n1nc(C2CCC2)c2c(=O)[nH]c(C)nc21` (stereo not shown) [Example 4, 3-cyclobutyl-6-methyl-1-{1-[6-(trifluoromethyl)pyridin-3-yl]propyl}-1H,4H,5H-pyrazolo[3,4-d]pyrimidin-4-one], the IC50 is above 10000 nM. On the same count and under the same terms, under `COc1ccc(Cc2nc3c(c(C4CC4)nn3[C@H](C)c3ccc(C(F)(F)F)nc3)c(=O)[nH]2)nc1` [Example 6, 3-cyclopropyl-6-[(5-methoxypyridin-2-yl)methyl]-1-[(1R)-1-[6-(trifluoromethyl)pyridin-3-yl]ethyl]-1H,4H,5H-pyrazolo[3,4-d]pyrimidin-4-one] stands 100 to 1000 nM; under `CC(c1ccc(C(F)(F)F)nc1)n1nc(C2CC2)c2c(=O)[nH]c(Cc3ccc(F)cn3)nc21` (stereo not shown) [Example 7, 3-cyclopropyl-6-[(5-fluoropyridin-2-yl)methyl]-1-{1-[6-(trifluoromethyl)pyridin-3-yl]ethyl}-1H,4H,5H-pyrazolo[3,4-d]pyrimidin-4-one], 100 to 1000 nM; under `Cc1nc2c(c(C3CC3)nn2[C@H](C)c2ccc(C(F)(F)F)nc2)c(=O)[nH]1` [Example 14, 3-cyclopropyl-6-methyl-1-[(1R)-1-[6-(trifluoromethyl)pyridin-3-yl]ethyl]-1H,4H,5H-pyrazolo[3,4-d]pyrimidin-4-one], 1000 to 10000 nM. Still for that read-out and setting: under `C[C@@H](c1ccc(C(F)(F)F)nc1)n1nc(C2CC2)c2c(=O)[nH]c(Cc3ccc(F)cn3)nc21` [Example 15, 3-cyclopropyl-6-[(5-fluoropyridin-2-yl)methyl]-1-[(1S)-1-[6-(trifluoromethyl)pyridin-3-yl]ethyl]-1H,4H,5H-pyrazolo[3,4-d]pyrimidin-4-one] stands 100 to 1000 nM; under `CC[C@H](c1ccc(C(F)(F)F)nc1)n1nc(C2CC2)c2c(=O)[nH]c(C)nc21` [Example 20, 3-cyclopropyl-6-methyl-1-[(1R)-1-[6-(trifluoromethyl)pyridin-3-yl]propyl]-1H,4H,5H-pyrazolo[3,4-d]pyrimidin-4-one], 1000 to 10000 nM; under `CC[C@H](c1ccc(C(F)(F)F)nc1)n1nc(C2CC2)c2c(=O)[nH]c(Cc3ccc(F)cn3)nc21` [Example 22, 3-cyclopropyl-6-[(5-fluoropyridin-2-yl)methyl]-1-[(1R)-1-[6-(trifluoromethyl)pyridin-3-yl]propyl]-1H,4H,5H-pyrazolo[3,4-d]pyrimidin-4-one], 1000 to 10000 nM. The same measure, in the same setting: under `CC[C@H](c1ccc(C(F)(F)F)cn1)n1nc(C2CC2)c2c(=O)[nH]c(C)nc21` [Example 24, 3-cyclopropyl-6-methyl-1-[(1R)-1-[5-(trifluoromethyl)pyridin-2-yl]propyl]-1H,4H,5H-pyrazolo[3,4-d]pyrimidin-4-one] stands 1000 to 10000 nM; under `Cc1nc2c(c(C3CC3)nn2[C@H](C)c2ccc(C(F)(F)F)cn2)c(=O)[nH]1` [Example 26, 3-cyclopropyl-6-methyl-1-[(1R)-1-[5-(trifluoromethyl)pyridin-2-yl]ethyl]-1H,4H,5H-pyrazolo[3,4-d]pyrimidin-4-one], 1000 to 10000 nM.

(Values after US10981916B2, “Substituted pyrazolopyrimidinone compounds as PDE2 inhibitors” (DART NEUROSCIENCE, LLC, priority 2016, dated 2021).)
